Test results published in article PMC6212536, “Allosteric Site Inhibitor Disrupting Auto-Processing of Malarial Cysteine Proteases” (Scientific Reports, 2018).

Key:
[1] = target: pro-falcipain-3 (pro-FP3) (Plasmodium falciparum, UniProt Q8IIL0); experiment: SPR, immobilized pro-enzyme; auto-processing also blocked; type: binding
[2] = target: T1, pro-falcipain-2 (pro-FP2) (Plasmodium falciparum, UniProt Q8I6U4); experiment: as above; type: binding
T1 construct: gene FP2A
T1 sequence (Q8I6U4 208-484): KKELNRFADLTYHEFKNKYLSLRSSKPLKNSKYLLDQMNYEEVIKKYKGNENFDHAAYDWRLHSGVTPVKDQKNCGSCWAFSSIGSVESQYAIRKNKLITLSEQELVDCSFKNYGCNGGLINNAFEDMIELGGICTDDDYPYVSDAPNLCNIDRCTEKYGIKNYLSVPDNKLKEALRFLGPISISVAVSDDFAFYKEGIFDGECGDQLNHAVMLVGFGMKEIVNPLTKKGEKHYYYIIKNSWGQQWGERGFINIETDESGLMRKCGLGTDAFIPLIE

Sequence of pro-falcipain-3 (pro-FP3) (Q8IIL0 57-492): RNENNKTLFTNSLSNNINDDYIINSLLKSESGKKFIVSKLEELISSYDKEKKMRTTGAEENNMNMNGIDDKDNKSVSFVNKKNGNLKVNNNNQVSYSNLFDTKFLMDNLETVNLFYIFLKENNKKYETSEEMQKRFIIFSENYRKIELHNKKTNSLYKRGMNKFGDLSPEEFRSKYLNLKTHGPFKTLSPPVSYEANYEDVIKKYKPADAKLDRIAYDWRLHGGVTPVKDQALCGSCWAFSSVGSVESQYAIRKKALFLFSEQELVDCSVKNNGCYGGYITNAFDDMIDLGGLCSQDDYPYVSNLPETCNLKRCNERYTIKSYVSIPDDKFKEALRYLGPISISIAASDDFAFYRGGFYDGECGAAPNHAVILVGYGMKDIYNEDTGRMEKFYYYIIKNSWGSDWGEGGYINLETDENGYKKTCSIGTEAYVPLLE

Compound	Kd [1]	Kd [2]
O=C(CC1(NC(=O)c2cnccn2)CCCCC1)NNC(=O)c1cnccn1 [NA-03]	2 ± 0.04 nM	1.67 ± 0.01 nM
O=C(CC1(CNC(=O)c2cnccn2)CCCCC1)NNC(=O)c1cnccn1 [NA-01]	5.14 ± 0.07 nM	1.72 ± 0.03 nM
